Read-outs that look alike come from different tables or passages of the source.
Experiments:
Assay type in all cases: biochemical
[1] = target: 320 wild-type protein kinases (Homo sapiens, UniProt Q5S007); details: singlicate
From the text: (§1) Table S4. Profiling of two compounds at two concentrations against 320 wild-type protein kinases; singlicate measurement; Residual activities (% of control).

[2] = target: T1, 320 wild-type protein kinases (Homo sapiens, UniProt O00418); details: EEF2K, singlicate
T1 sequence (O00418 1-725): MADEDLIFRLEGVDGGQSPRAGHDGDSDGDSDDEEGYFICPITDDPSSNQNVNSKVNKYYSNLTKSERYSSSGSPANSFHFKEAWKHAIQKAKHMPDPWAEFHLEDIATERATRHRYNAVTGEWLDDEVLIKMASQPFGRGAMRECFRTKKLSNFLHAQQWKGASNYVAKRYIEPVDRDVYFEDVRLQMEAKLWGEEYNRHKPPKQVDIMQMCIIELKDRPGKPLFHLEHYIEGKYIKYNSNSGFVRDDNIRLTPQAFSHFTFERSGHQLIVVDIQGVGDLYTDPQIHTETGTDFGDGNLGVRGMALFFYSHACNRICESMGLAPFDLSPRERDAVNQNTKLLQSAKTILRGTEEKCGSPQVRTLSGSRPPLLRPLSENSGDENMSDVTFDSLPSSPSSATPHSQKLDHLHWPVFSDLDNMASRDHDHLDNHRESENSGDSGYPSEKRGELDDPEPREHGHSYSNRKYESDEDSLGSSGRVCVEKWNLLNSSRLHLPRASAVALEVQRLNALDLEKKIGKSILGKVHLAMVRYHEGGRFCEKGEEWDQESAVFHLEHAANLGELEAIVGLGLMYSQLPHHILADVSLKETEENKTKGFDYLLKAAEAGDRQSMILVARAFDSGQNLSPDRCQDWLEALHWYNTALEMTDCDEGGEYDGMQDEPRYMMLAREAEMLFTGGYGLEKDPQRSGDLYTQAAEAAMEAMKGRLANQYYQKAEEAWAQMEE
From the text: as §1

[3] = target: 320 wild-type protein kinases (Homo sapiens, UniProt P17252); details: PKC-alpha, singlicate
From the text: as §1

[4] = target: 320 wild-type protein kinases (Homo sapiens, UniProt Q9H422); details: singlicate
320 wild-type protein kinases (Homo sapiens, UniProt Q9H422), sequence (Q9H422 whole entry): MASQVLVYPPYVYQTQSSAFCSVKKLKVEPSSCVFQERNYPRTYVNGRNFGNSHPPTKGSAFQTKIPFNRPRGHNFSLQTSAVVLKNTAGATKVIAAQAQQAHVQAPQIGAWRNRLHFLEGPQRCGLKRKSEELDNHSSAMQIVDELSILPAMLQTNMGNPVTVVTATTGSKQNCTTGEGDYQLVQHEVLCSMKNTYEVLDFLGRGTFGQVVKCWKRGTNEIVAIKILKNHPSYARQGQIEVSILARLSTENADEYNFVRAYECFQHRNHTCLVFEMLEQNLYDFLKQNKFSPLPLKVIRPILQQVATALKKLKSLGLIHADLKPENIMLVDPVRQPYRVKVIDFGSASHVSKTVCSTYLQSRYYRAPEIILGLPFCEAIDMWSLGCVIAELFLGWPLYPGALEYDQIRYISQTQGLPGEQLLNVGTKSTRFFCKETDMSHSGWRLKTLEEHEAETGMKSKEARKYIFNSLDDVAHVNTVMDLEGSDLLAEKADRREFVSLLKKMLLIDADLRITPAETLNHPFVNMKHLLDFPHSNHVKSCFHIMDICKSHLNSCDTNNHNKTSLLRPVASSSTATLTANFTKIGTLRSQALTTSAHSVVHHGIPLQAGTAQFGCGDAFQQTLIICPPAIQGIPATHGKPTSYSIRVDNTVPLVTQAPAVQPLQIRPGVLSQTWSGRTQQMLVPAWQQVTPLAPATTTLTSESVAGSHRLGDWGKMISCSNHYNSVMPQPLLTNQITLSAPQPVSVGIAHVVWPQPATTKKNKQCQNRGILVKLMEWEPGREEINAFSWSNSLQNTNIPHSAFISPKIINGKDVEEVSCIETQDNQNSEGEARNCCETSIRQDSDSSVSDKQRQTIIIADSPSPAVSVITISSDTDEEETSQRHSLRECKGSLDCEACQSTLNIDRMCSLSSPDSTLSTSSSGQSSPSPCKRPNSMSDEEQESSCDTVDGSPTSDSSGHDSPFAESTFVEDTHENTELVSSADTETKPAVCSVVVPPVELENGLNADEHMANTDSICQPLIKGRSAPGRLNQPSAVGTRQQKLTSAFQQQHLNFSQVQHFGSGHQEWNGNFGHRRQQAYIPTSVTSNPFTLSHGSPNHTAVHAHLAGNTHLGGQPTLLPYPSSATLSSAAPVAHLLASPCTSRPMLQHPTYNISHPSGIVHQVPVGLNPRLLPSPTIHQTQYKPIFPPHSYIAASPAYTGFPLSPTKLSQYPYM
From the text: as §1

[5] = target: 320 wild-type protein kinases (Homo sapiens, UniProt Q05397); details: singlicate
From the text: as §1

[6] = target: 320 wild-type protein kinases (Homo sapiens, UniProt Q13555); details: CAMK2G, singlicate
320 wild-type protein kinases (Homo sapiens, UniProt Q13555), sequence (Q13555 whole entry): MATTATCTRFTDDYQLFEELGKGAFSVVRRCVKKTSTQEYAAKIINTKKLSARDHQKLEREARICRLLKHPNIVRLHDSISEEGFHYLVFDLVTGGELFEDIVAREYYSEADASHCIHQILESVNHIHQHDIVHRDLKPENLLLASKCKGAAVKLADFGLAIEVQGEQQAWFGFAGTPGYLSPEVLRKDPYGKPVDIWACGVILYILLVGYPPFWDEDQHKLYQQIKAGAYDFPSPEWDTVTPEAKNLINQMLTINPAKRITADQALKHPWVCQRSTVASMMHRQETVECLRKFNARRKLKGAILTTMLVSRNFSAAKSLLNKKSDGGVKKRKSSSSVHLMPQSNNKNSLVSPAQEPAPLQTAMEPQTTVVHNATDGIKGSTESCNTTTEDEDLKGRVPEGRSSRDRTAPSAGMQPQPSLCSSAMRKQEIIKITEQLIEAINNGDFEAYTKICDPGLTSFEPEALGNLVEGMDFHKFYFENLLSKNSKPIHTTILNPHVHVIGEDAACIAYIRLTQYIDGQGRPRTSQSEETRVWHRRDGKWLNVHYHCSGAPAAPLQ
From the text: as §1

[7] = target: 320 wild-type protein kinases (Homo sapiens, UniProt P07948); details: LYN, singlicate
From the text: as §1

[8] = target: 320 wild-type protein kinases (Homo sapiens, UniProt Q06187); details: BTK, singlicate
From the text: as §1

[9] = target: 320 wild-type protein kinases (Homo sapiens, UniProt P28482); details: singlicate
320 wild-type protein kinases (Homo sapiens, UniProt P28482), sequence (P28482 whole entry): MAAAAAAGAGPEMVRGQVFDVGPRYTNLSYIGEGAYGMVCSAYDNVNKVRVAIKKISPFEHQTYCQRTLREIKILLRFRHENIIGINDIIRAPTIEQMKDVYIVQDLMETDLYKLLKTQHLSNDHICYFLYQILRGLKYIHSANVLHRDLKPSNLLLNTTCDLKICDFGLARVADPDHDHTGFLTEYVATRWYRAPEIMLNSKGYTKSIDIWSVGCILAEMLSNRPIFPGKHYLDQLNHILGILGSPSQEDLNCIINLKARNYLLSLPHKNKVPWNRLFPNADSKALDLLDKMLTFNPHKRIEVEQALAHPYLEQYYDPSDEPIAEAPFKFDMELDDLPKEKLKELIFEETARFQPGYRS
From the text: as §1

[10] = target: 320 wild-type protein kinases (Homo sapiens, UniProt Q8N5S9); details: singlicate
From the text: as §1

[11] = target: 320 wild-type protein kinases (Homo sapiens, UniProt P08922); details: kinase ROS, singlicate
320 wild-type protein kinases (Homo sapiens, UniProt P08922), sequence (P08922 28-2347): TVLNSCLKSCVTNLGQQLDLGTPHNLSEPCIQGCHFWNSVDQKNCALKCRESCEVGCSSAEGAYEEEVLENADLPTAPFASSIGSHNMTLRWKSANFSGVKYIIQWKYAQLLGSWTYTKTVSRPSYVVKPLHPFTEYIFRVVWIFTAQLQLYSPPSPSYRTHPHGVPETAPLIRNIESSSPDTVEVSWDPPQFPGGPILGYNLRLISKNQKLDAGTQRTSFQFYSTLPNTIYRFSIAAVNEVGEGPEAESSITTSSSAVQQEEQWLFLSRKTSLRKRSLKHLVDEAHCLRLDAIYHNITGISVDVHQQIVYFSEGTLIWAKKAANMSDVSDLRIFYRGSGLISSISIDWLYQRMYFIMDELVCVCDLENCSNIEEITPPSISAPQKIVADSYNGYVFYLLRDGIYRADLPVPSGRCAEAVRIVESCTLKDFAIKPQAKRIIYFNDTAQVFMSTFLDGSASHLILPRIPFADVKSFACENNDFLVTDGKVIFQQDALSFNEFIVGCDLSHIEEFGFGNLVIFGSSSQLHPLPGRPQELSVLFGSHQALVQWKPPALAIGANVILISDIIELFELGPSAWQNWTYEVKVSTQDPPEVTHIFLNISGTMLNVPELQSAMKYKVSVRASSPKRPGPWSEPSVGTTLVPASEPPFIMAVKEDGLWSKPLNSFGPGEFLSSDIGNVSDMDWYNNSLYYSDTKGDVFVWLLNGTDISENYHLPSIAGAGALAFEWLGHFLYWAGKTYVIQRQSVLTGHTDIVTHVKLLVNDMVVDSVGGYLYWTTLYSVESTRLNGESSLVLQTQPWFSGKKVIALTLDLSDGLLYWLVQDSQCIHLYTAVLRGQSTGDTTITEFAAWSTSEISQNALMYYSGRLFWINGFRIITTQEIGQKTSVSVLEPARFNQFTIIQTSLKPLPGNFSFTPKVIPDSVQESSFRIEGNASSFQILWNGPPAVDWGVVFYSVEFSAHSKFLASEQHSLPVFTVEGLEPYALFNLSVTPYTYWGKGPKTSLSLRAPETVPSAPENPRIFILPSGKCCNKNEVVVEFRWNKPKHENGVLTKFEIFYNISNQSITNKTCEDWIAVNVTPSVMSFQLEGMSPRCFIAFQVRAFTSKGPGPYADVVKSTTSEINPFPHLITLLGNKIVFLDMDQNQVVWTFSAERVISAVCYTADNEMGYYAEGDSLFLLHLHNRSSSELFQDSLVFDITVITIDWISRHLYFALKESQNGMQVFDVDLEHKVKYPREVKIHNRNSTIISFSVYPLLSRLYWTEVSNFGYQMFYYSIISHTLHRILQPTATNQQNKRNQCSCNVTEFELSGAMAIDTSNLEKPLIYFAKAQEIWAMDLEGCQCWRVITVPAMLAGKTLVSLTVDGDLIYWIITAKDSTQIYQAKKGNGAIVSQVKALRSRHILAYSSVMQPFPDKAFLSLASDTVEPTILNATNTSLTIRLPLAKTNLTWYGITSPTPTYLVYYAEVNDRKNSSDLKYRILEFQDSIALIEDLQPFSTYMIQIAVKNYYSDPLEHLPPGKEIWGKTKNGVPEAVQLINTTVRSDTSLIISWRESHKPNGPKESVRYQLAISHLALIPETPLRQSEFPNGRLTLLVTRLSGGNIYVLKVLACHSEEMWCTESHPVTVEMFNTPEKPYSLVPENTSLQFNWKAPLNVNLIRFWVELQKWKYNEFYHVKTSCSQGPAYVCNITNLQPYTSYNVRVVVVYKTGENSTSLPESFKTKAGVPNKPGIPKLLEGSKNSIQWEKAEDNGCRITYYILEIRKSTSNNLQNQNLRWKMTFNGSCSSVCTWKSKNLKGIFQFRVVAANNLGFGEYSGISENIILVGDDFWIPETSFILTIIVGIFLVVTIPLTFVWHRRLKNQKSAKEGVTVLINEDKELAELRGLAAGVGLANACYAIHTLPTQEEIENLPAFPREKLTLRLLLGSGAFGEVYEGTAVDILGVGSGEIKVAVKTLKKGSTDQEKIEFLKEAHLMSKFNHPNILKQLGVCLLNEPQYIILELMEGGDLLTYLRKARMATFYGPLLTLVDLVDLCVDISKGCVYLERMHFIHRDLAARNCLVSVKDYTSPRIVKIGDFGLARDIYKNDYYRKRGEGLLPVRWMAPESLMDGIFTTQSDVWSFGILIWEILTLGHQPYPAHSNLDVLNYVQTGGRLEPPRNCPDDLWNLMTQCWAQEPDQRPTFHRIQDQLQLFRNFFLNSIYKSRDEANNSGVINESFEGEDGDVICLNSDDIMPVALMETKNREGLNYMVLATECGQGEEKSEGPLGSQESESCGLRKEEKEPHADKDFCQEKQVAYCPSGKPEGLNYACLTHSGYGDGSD
From the text: as §1

[12] = target: 320 wild-type protein kinases (Homo sapiens, UniProt Q9Y463); details: DYRK1B, singlicate
From the text: as §1

[13] = target: T2, 320 wild-type protein kinases (Homo sapiens, UniProt O15111); details: IKK-alpha, singlicate
T2 sequence (O15111 1-745): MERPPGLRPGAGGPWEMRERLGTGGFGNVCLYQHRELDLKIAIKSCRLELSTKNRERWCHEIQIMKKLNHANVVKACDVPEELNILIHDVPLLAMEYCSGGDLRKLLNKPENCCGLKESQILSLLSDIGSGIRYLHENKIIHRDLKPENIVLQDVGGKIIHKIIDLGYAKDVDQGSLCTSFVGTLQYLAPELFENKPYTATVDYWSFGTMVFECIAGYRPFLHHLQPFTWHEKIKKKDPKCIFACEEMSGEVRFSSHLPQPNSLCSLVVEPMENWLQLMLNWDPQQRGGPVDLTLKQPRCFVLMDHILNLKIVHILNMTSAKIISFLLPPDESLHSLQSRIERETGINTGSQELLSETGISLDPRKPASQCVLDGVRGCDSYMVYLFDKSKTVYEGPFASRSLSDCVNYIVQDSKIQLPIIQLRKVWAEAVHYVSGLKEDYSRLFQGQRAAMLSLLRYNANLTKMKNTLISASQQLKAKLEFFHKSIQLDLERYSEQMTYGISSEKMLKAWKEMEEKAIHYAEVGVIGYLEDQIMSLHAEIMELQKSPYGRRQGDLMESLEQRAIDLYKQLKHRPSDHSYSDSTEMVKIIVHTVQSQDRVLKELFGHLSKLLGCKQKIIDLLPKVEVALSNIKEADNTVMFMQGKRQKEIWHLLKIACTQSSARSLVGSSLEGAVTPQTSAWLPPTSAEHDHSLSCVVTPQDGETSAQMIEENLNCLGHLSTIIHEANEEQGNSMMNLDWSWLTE
From the text: as §1

[14] = target: Aurora-B (Homo sapiens, UniProt Q96GD4); assay: 33PanQinase activity assay; details: for Residual activity: Aurora-B, singlicate
From the text: as §1

[15] = target: MKNK2 (Homo sapiens, UniProt Q9HBH9); assay: 33PanQinase activity assay; details: for Residual activity: singlicate
From the text: as §1

Row | Structure (SMILES) | Residual activity ([1]; LRRK2, 1.0E-06 M) | Residual activity ([1]; LRRK2, 1.0E-07 M) | Residual activity ([2]; 1.0E-06 M) | Residual activity ([2]; 1.0E-07 M) | Residual activity ([3]; 1.0E-06 M) | Residual activity ([3]; 1.0E-07 M) | Residual activity ([4]; HIPK3, 1.0E-06 M) | Residual activity ([4]; HIPK3, 1.0E-07 M) | Residual activity ([5]; FAK aa2-1052, 1.0E-06 M) | Residual activity ([5]; FAK aa2-1052, 1.0E-07 M) | Residual activity ([6]; 1.0E-06 M) | Residual activity ([6]; 1.0E-07 M) | Residual activity ([7]; 1.0E-06 M) | Residual activity ([7]; 1.0E-07 M) | Residual activity ([8]; 1.0E-06 M) | Residual activity ([8]; 1.0E-07 M) | Residual activity ([9]; ERK2, 1.0E-06 M) | Residual activity ([9]; ERK2, 1.0E-07 M) | Residual activity ([10]; CAMKK1, 1.0E-06 M) | Residual activity ([10]; CAMKK1, 1.0E-07 M) | further results
1 | C#Cc1cc(Nc2ncnc3cc(I)ccc23)ccc1Cl [Compound 41] | 87 % of control | 88 % of control | 87 % of control | 94 % of control | 95 % of control | 86 % of control | 103 % of control | 98 % of control | 106 % of control | 138 % of control | 93 % of control | 118 % of control | 89 % of control | 103 % of control | 100 % of control | 103 % of control | 86 % of control | 90 % of control | 84 % of control | 87 % of control | Residual activity, ROS ([11]; assay conc. 1.0E-06 M): 88 % of control; Residual activity, ROS ([11]; assay conc. 1.0E-07 M): 95 % of control; Residual activity ([12]; 1.0E-06 M): 90 % of control; Residual activity ([12]; 1.0E-07 M): 116 % of control; Residual activity ([13]; 1.0E-06 M): 100 % of control; Residual activity ([13]; 1.0E-07 M): 109 % of control; Aurora-B inhibition ([14]; 10 μM): > 50%; Residual activity ([14]; 1.0E-06 M): 30 % of control; Residual activity ([14]; 1.0E-07 M): 75 % of control; Residual activity ([15]; MKNK2, 1.0E-06 M): 74 % of control; Residual activity ([15]; MKNK2, 1.0E-07 M): 92 % of control
2 | C#Cc1cc(Nc2ncnc3cc(OC)c(OC)cc23)ccc1Cl [Compound 45] | 81 % of control | 99 % of control | 83 % of control | 91 % of control | 94 % of control | 111 % of control | 97 % of control | 102 % of control | 95 % of control | 109 % of control | 91 % of control | 116 % of control | 62 % of control | 94 % of control | 65 % of control | 100 % of control | 87 % of control | 94 % of control | 110 % of control | 91 % of control | Residual activity, ROS ([11]; assay conc. 1.0E-06 M): 89 % of control; Residual activity, ROS ([11]; assay conc. 1.0E-07 M): 96 % of control; Residual activity ([12]; 1.0E-06 M): 111 % of control; Residual activity ([12]; 1.0E-07 M): 105 % of control; Residual activity ([13]; 1.0E-06 M): 95 % of control; Residual activity ([13]; 1.0E-07 M): 106 % of control; Residual activity ([14]; 1.0E-06 M): 43 % of control; Residual activity ([14]; 1.0E-07 M): 91 % of control; MKNK2 inhibition ([15]; 10 μM): > 50%; Residual activity ([15]; MKNK2, 1.0E-06 M): 46 % of control; Residual activity ([15]; MKNK2, 1.0E-07 M): 78 % of control
